Measurements from patent US6447801B1, “Anti-parasitic action of N,N-diethyl-m-toluamide (deet) and formulations that prolong its activity in the skin” (priority 1997, dated 2002).
“And” between values parts separate entries of the source, which are not always exact repeats. Identical values can stand only once.

How the values were obtained:
cercariae of S. mansoni [1] = assay: Cercarial penetration through mouse skin and worm establishment, application before infection (compressed organ autoradiography); format: in vivo, Schistosoma mansoni; conditions: for protection against schistosomiasis: 10% DEET
Source text: (§1) For in vivo animal experiments, male mice of the CD1 strain, weighing approximately 18-20 grams, purchased from Charles River Laboratories (Wilmington, Mass.) were used. The use of animals in these experiments were in compliance with the Animal Welfare Act and other Federal statues and regulations relating to animals as stated in the National Institute of Health publication: Guide for the Care and Use of Laboratory Animals. Mice were infected individually with schistosome cercariae via either tail skin or via shaved abdominal skin. For infection via tail skin, the mouse was restrained in a cage and the tail was dipped for 60 minutes in a tube containing 250-300 ^35S-labeled cercariae suspended in 10 ml of distilled water at room temperature. For infection via abdominal skin, the mouse was restrained on its back. After shaving the abdominal skin, 150-200 ^35S-labeled cercariae were applied to the skin in a drop of distilled water, covered with a cover slip and exposed for 30 minutes.
(§2) To determine skin penetration and worm establishment, whole tail skin or the area of abdominal skin that was exposed to the cercariae as described above and the lungs were removed from each mouse on day seven after infection and processed for compressed organ autoradiography techniques as described previously (Li J W et al., Parasitology International 46: 55-65 (1997)). Briefly, the skin and lungs were mounted on a cardboard sheet, covered with plastic wrap and kept under a tissue press for 48 hrs at room temperature. The pressed and dried tissue was then exposed to X-ray film (Fuji RX, Fisher Scientific, Pittsburgh, Pa.) at −70° C. for 7-9 days. Following autoradiographic development, the dark spots (which represent reduced silver foci on film) were counted and percent worm establishment was calculated (number of spots/total number of cercariae used for infection X 100).
For application of DEET to the tail skin, mice were individually kept in restraining cages and their tail was dipped in 7.5% DEET solution (prepared in isopropanol) for 5 min. Following application the skin was air dried for 30 min, and rinsed in distilled water for 1 min before exposure to radio-labeled cercariae of S. mansoni as mentioned in Example 3.
For application of DEET to the abdominal skin, mice were restrained to the back and their abdomen shaved. 200 μl of an appropriate concentration of DEET in isopropanol solution was dropped on to the abdomen and allowed to dry for 15 min. After drying, the skin was washed for 1 min with distilled water and exposed to radio-labeled cercariae for 30 min.
Experiments were also conducted to see how long the cercaricidal activity of DEET remained in the skin after a single application. In these experiments 10% DEET was applied to the shaved abdominal skin of mice and was allowed to dry. Thirty minutes after DEET application, the area of skin was washed continuously for one minute with running distilled water. At different time points (30 min, 1 hr, 4 hrs, and 24 hrs) after DEET application, mice were infected with radio-labeled cercariae (as described in Example 2) and worm establishment was determined by compressed organ autoradiography (as described in Example 3).

cercariae of S. mansoni [2] = assay: Effect of DEET applied to the skin after exposure to S. mansoni infection in mice; format: in vivo, Schistosoma mansoni
Source text: as §1, with “For infection via abdominal skin, the mouse was restrained on its back. After shaving the abdominal skin, 150-200 ^35S-labeled cercariae were applied to the skin in a drop of distilled water, covered with a cover slip and exposed for 30 minutes.” left out
as §2, with “Briefly, the skin and lungs were mounted on a cardboard sheet, covered with plastic wrap and kept under a tissue press for 48 hrs at room temperature. The pressed and dried tissue was then exposed to X-ray film (Fuji RX, Fisher Scientific, Pittsburgh, Pa.) at −70° C. for 7-9 days.” left out, “100). […]” for “100).”

insects = conditions: normally; cited from earlier work
[3] = 7.5% DEET applied to skin before infection, mice, day 7, n = 10

## CCN(CC)C(=O)c1cccc(C)c1 [DEET, N,N-diethyl-m-toluamide]
Cercariae of S. mansoni [1]; 5% DEET applied to mouse skin
  protection against cercarial penetration: 72%
Cercariae of S. mansoni [1]; [3]
  Percent Worm Established, Lungs: 0
  Percent Worm Established, Skin: 0.13 ± 0.01%
  Percent Worm Established, Total: 0.13% and 0.13 ± 0.01%
Cercariae of S. mansoni [1]; infection 30 min after application, skin washed one minute
  protection against schistosomiasis: 100%
Cercariae of S. mansoni [1]; infection 24 hrs after application
  protection against schistosomiasis: no protection at all
Cercariae of S. mansoni [1]; infection four hours after application
  protection against schistosomiasis: 85±1%
Cercariae of S. mansoni [1]; infection one hour after application
  protection against schistosomiasis: 98±1%
Cercariae of S. mansoni [1]; DEET at 10, 20 or 40%
  effectiveness in preventing the entry of cercaria into the mouse skin: 100%
Cercariae of S. mansoni [2]; 40% DEET applied 4 hrs or more after infection
  protection: no protection
Cercariae of S. mansoni [2]; 40% DEET applied within 30 min after exposure to cercariae
  effectiveness in preventing the infection: 100%
insects
  duration of effect under field condition: eight hours
